Measurements: ChEMBL document CHEMBL1201862, “PubChem BioAssay data set” (2004)
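Interpolation was linear, between the two tested concentrations surrounding the appropriate level; five concentrations were tested over 48 hours in 96-well plates. Abbreviation: GI50, concentration required for 50% inhibition of growth.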 Activity calls are given as the source filed them. No stated cut-off is given here; in the data, active = GI50 up to about 1.1 µM and inactive = higher.

What was measured:
Assay in all cases: NCI anticancer screen, dose series, 48 h
SN12C = tested on: SN12C
SK-MEL-2 = tested on: SK-MEL-2
HL-60 = tested on: HL-60
SF-539 = tested on: SF-539
786-0 = tested on: 786-0
UO-31 = tested on: UO-31
RPMI-8226 = tested on: RPMI-8226
K562 = tested on: K562
NCI-H226 = tested on: NCI-H226
OVCAR-3 = tested on: OVCAR-3
DMS-114 = tested on: DMS-114
ACHN = tested on: ACHN
MOLT-4 = tested on: MOLT-4
HCT-116 = tested on: HCT-116
CCRF-CEM = tested on: CCRF-CEM
SF-295 = tested on: SF-295
MDA-N = tested on: MDA-N
MCF7 = tested on: MCF7
T47D = tested on: T47D
PC-3 = tested on: PC-3

Row | SMILES | GI50 (SN12C) | GI50 (SK-MEL-2) | GI50 (HL-60) | GI50 (SF-539) | GI50 (786-0) | GI50 (UO-31) | GI50 (RPMI-8226) | GI50 (K562) | GI50 (NCI-H226) | GI50 (OVCAR-3) | GI50 (DMS-114) | GI50 (ACHN) | GI50 (MOLT-4) | GI50 (HCT-116) | GI50 (CCRF-CEM) | GI50 (SF-295) | GI50 (MDA-N) | GI50 (MCF7) | GI50 (T47D) | GI50 (PC-3)
1 | COc1nc(=O)cc(N)n1C1OC(CO)C(O)C1O (stereo not drawn) | > 100 µM (inactive) | > 100 µM (inactive) | > 100 µM (inactive) | > 100 µM (inactive) | > 100 µM (inactive) | > 100 µM (inactive) | > 100 µM (inactive) | > 100 µM (inactive) | > 100 µM (inactive) | > 100 µM (inactive) | > 100 µM (inactive) | > 100 µM (inactive) | > 100 µM (inactive) | > 100 µM (inactive) | > 100 µM (inactive) | > 100 µM (inactive) |  |  |  | 
2 | O=C(CSc1nc(-c2ccccc2)c(-c2ccccc2)[nH]1)N/N=C/c1ccc(O)cc1 | 26.4 µM (inactive) | 24.5 µM (inactive) | 20 µM (inactive) | 19.1 µM (inactive) | 22.6 µM (inactive) | 28.1 µM (inactive) | 25.7 µM (inactive) | 23.6 µM (inactive) | 31.3 µM (inactive) | 18.2 µM (inactive) | 22.1 µM (inactive) | 22.1 µM (inactive) | 15.7 µM (inactive) | 22.5 µM (inactive) | 23.3 µM (inactive) | 22.4 µM (inactive) |  |  |  | 
3 | O=C(NC(c1ccccc1)C(O)C(=O)OCc1ccc2c(c1)C(=O)c1ccccc1C2=O)c1ccccc1 (stereo not drawn) | 8.69 µM (inactive) | 18.1 µM (inactive) | > 83.6 µM (inactive) | 6.31 µM (inactive) | 2.94 µM (inactive) | 2.86 µM (inactive) | 35.8 µM (inactive) | > 90.6 µM (inactive) | 4.61 µM (inactive) | 12.6 µM (inactive) | 12.6 µM (inactive) | 9.31 µM (inactive) | 74.6 µM (inactive) | 3.94 µM (inactive) | 77.3 µM (inactive) | 10.6 µM (inactive) | 30.5 µM (inactive) | 17.7 µM (inactive) | 15.2 µM (inactive) | 17.2 µM (inactive)
4 | C/C(CC(=O)Nc1cccc(C)c1C)=N\NC(N)=S | > 100 µM (inactive) | > 100 µM (inactive) | > 100 µM (inactive) | > 100 µM (inactive) | > 100 µM (inactive) | > 100 µM (inactive) | 40.8 µM (inactive) | > 100 µM (inactive) | > 100 µM (inactive) | > 100 µM (inactive) | 41.7 µM (inactive) | > 100 µM (inactive) | > 100 µM (inactive) | 88.7 µM (inactive) | 74.3 µM (inactive) | > 100 µM (inactive) |  |  |  | 
5 | Cc1ccccc1NC(=O)C(=O)C(C#N)c1ccc(Cl)cc1 (stereo not drawn) | 44.9 µM (inactive) | 56.5 µM (inactive) | 27.8 µM (inactive) | 30.4 µM (inactive) | 28 µM (inactive) | 57.7 µM (inactive) | 22.6 µM (inactive) | 29.1 µM (inactive) | 78.5 µM (inactive) | > 100 µM (inactive) | 39.8 µM (inactive) | 74.1 µM (inactive) | 52.6 µM (inactive) | 34 µM (inactive) | 64 µM (inactive) | 64.3 µM (inactive) |  |  |  | 
6 | COc1ccc(C=O)c(N(C)C(=O)C(C)(C)C)c1 | > 100 µM (inactive) | > 100 µM (inactive) | > 100 µM (inactive) | > 100 µM (inactive) | > 100 µM (inactive) | > 100 µM (inactive) | > 100 µM (inactive) | > 100 µM (inactive) | > 100 µM (inactive) | > 100 µM (inactive) | > 100 µM (inactive) | > 100 µM (inactive) | > 100 µM (inactive) | > 100 µM (inactive) | > 100 µM (inactive) | > 100 µM (inactive) |  |  |  | 
7 | CNC(=O)OCc1nc(SSC(C)(C)C)n(C)c1COC(=O)NC | 4.42 µM (inactive) | 8.02 µM (inactive) | 0.863 µM (active) | 3.94 µM (inactive) | 3.06 µM (inactive) | 9.02 µM (inactive) | 2.54 µM (inactive) | 1.94 µM (inactive) | 13.3 µM (inactive) | 2.1 µM (inactive) | 1.72 µM (inactive) | 2.7 µM (inactive) | 1.28 µM (inactive) | 1.72 µM (inactive) | 0.697 µM (active) | 17.1 µM (inactive) | 2.45 µM (inactive) | 4.3 µM (inactive) | 2.81 µM (inactive) | 8.75 µM (inactive)
8 | C=C(c1ccccc1N)[C@@]1(O)C[C@H](/C(=C\C)CO)C[C@@H]1NCc1ccccc1 | 32 µM (inactive) | 22.2 µM (inactive) | 13.3 µM (inactive) | 16.3 µM (inactive) | 20.6 µM (inactive) | 17.4 µM (inactive) | 19.1 µM (inactive) | 18.6 µM (inactive) | 15 µM (inactive) | 18.2 µM (inactive) | 17 µM (inactive) | 36.8 µM (inactive) | 18.2 µM (inactive) | 15.3 µM (inactive) | 21.2 µM (inactive) | 16.9 µM (inactive) |  |  |  | 
9 | NNC(=O)/C(=C/c1ccc(Cl)c(Cl)c1)NC(=O)c1ccccc1 | > 100 µM (inactive) | > 100 µM (inactive) | > 100 µM (inactive) |  | > 100 µM (inactive) | > 100 µM (inactive) | 38.5 µM (inactive) |  | > 100 µM (inactive) | > 100 µM (inactive) | 61.8 µM (inactive) | > 100 µM (inactive) | 80.5 µM (inactive) | > 100 µM (inactive) | 92.5 µM (inactive) | > 100 µM (inactive) |  |  |  | 
10 | CC(C)(C)C1CCC2c3c([nH]c4ccccc34)C3C(=O)N(c4ccc(Br)cc4)C(=O)C3C2C1 (stereo not drawn) | 11.4 µM (inactive) | 19 µM (inactive) | 13.3 µM (inactive) | 21.1 µM (inactive) | 21.6 µM (inactive) | 14.2 µM (inactive) | 17.1 µM (inactive) | 15.7 µM (inactive) | 18.7 µM (inactive) |  | 19 µM (inactive) | 17.7 µM (inactive) | 9.64 µM (inactive) | 32.9 µM (inactive) | 16.7 µM (inactive) | 25 µM (inactive) |  |  |  | 
11 | CO[C@H]1C[C@](C)(O)Cc2cc3c(c(O)c21)C(=O)c1c(O)cc2c(c1C3=O)O[C@@H]1O[C@@]2(C)[C@H](O)[C@@H](N(C)C)[C@@H]1O | 0.499 µM (active) | 2.43 µM (inactive) | 0.115 µM (active) | 0.851 µM (active) | 0.524 µM (active) | 1.74 µM (inactive) |  | 1.12 µM (inactive) | 0.59 µM (active) | 2.38 µM (inactive) | 0.456 µM (active) | 0.279 µM (active) |  | 0.652 µM (active) | 0.151 µM (active) | 0.284 µM (active) | 1.85 µM (inactive) | 0.103 µM (active) | 0.818 µM (active) | 0.661 µM (active)
12 | COC(=O)/C1=C/C2CC(/C=C(/c3ccccc3)C(=O)O1)C2 | 24.4 µM (inactive) |  | 22.5 µM (inactive) | 33.3 µM (inactive) | 37.5 µM (inactive) | 32.9 µM (inactive) | 18.3 µM (inactive) | 27.8 µM (inactive) | 20.4 µM (inactive) | 33.2 µM (inactive) | 19 µM (inactive) | 26.3 µM (inactive) | 17.5 µM (inactive) | 21.8 µM (inactive) | 19.5 µM (inactive) | 32.9 µM (inactive) |  |  |  | 
13 | Cc1noc2cccc(O)c12 | > 100 µM (inactive) | > 100 µM (inactive) | > 100 µM (inactive) | > 100 µM (inactive) | > 100 µM (inactive) | > 100 µM (inactive) |  | > 100 µM (inactive) | > 100 µM (inactive) | > 100 µM (inactive) | > 100 µM (inactive) | > 100 µM (inactive) | > 100 µM (inactive) | > 100 µM (inactive) | > 100 µM (inactive) | > 100 µM (inactive) |  |  |  | 
